Results: patent publication US20170190671A1, “BIS(ARYL)CATECHOL DERIVATIVES AS HERBICIDES” (E I DU PONT DE NEMOURS AND COMPANY, priority 2014, published 2017)

How the values were obtained:
Format in all cases: in vivo
[1] = tested on: pigweed (Amaranthus retroflexus); assay: Test A preemergence; details: Amaranthus retroflexus, pre-emergence, 240 h; for pest or weed control at 125 g/ha: 125 g ai/ha; for pest or weed control at 500 g/ha: 500 g ai/ha
In short: (§1)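 Visual 0–100 rating (100 = complete control) taken about 10 d post-treatment relative to untreated checks. Preemergence: directed soil spray on sown loam/sand pots. Postemergence: seedlings 2–10 cm, 1–2 leaf. Non-phytotoxic solvent formulation with surfactant.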

[2] = tested on: barnyardgrass (Echinochloa crus-galli); assay: Test A preemergence; details: Echinochloa crus-galli, pre-emergence, 240 h, 0 to 100 scale, read-out: Plant response rating, Barnyardgrass; for pest or weed control at 125 g/ha: 125 g ai/ha; for pest or weed control at 500 g/ha: 500 g ai/ha
In short: as §1

[3] = tested on: giant foxtail (Setaria faberii); assay: Test A preemergence; details: Setaria faberi, pre-emergence, 240 h; for pest or weed control at 125 g/ha: 125 g ai/ha; for pest or weed control at 500 g/ha: 500 g ai/ha
In short: as §1

[4] = tested on: lambsquarters (Chenopodium album); assay: Test C preemergence; details: Chenopodium album, pre-emergence, 336 h, scale 0 to 100, read-out: Plant response rating, Lambsquarters; for pest or weed control at 31 g/ha: 31 g ai/ha; for pest or weed control at 31 g/ha / pest or weed control at 62 g/ha / pest or weed control at 125 g/ha: preemergence; for pest or weed control at 62 g/ha: 62 g ai/ha; for pest or weed control at 125 g/ha: 125 g ai/ha; for pest or weed control at 16 g/ha: Preemergence, 16 g ai/ha
Text: (§2) Seeds of plant species selected from blackgrass (Alopecurus myosuroides), Italian ryegrass (Lolium multiflorum), winter wheat (Triticum aestivum), galium (catchweed bedstraw, Galium aparine), corn (Zea mays), large (Lg) crabgrass (Digitaria sanguinalis), giant foxtail (Setaria faberii), johnsongrass (Sorghum halepense), lambsquarters (Chenopodium album), morningglory (Ipomoea coccinea), yellow nutsedge (Cyperus esculentus), pigweed (Amaranthus retroflexus), ragweed (common ragweed, Ambrosia elatior), soybean (Glycine max), barnyardgrass (Echinochloa crus-galli), oilseed rape (Brassica napus), waterhemp (common waterhemp, Amaranthus rudis), and velvetleaf (Abutilon theophrasti) were planted into a blend of loam soil and sand and treated preemergence with test chemicals formulated in a non-phytotoxic solvent mixture which included a surfactant.
(§3) At the same time, plants selected from these crop and weed species and also chickweed (common chickweed, Stellaria media), kochia (Kochia scoparia), and wild oat (Avena fatua), were planted in pots containing Redi-Earth® planting medium (Scotts Company, 14111 Scottslawn Road, Marysville, Ohio 43041) comprising spaghnum peat moss, vermiculite, wetting agent and starter nutrients and treated with postemergence applications of test chemicals formulated in the same manner. Plants ranged in height from 2 to 18 cm (1- to 4-leaf stage) for postemergence treatments. Treated plants and controls were maintained in a greenhouse for 13 to 15 days, after which time all species were compared to controls and visually evaluated. Plant response ratings, summarized in Table C, are based on a scale of 0 to 100 where 0 is no effect and 100 is complete control. A dash (-) response means no test result.

[5] = tested on: barnyardgrass (Echinochloa crus-galli); assay: Test C preemergence; details: Echinochloa crus-galli, pre-emergence, read-out: Plant response rating, Barnyardgrass; for pest or weed control at 31 g/ha: 31 g ai/ha; for pest or weed control at 62 g/ha: 62 g ai/ha; for pest or weed control at 125 g/ha: 125 g ai/ha; for pest or weed control at 16 g/ha: Preemergence, 16 g ai/ha, scale 0 to 100 (0 no effect, 100 complete control)
Text: as §2, §3

[6] = tested on: pigweed (Amaranthus retroflexus); assay: Test A postemergence; details: Amaranthus retroflexus, post-emergence, 240 h, 0 to 100 scale, read-out: Plant response rating, Pigweed; for pest or weed control at 125 g/ha: 125 g ai/ha; for pest or weed control at 500 g/ha: 500 g ai/ha
In short: as §1

[7] = tested on: barnyardgrass (Echinochloa crus-galli); assay: Test A postemergence; details: Echinochloa crus-galli, post-emergence, 240 h, 0 to 100 scale, read-out: Plant response rating, Barnyardgrass; for pest or weed control at 125 g/ha: 125 g ai/ha; for pest or weed control at 500 g/ha: 500 g ai/ha
In short: as §1

[8] = tested on: giant foxtail (Setaria faberii); assay: Test A postemergence; details: Setaria faberi, post-emergence, 240 h, 0 to 100 scale, read-out: Plant response rating, Foxtail, Giant; for pest or weed control at 125 g/ha: 125 g ai/ha; for pest or weed control at 500 g/ha: 500 g ai/ha
In short: as §1

[9] = tested on: wheat (Triticum aestivum); assay: Test A postemergence; details: Triticum aestivum, post-emergence, 240 h, 0 to 100 scale, read-out: Plant response rating, Wheat; for plant injury at 125 g/ha: 125 g ai/ha; for plant injury at 500 g/ha: 500 g ai/ha
In short: as §1

corn (Zea mays) = assay: Test A postemergence; details: Zea mays, post-emergence, 240 h, 0 to 100 scale; for Corn plant response rating (crop injury, 0 = no effect, 100 = complete kill) at 125 g/ha: 125 g ai/ha; for Corn plant response rating (crop injury, 0 = no effect, 100 = complete kill) at 500 g/ha: 500 g ai/ha
In short: as §1

[10] = tested on: ducksalad (Heteranthera limosa); assay: Test B flooded paddy; details: Heteranthera limosa, 336 h; 250 g ai/ha, Flood, 13 to 15 days, scale 0 (no effect) to 100 (complete control); read-out: Plant response rating, Ducksalad
In short: (§4)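 Compound was added to standing water 3 cm above soil, flood maintained, and plants held in a greenhouse before visual scoring against controls at 13 to 15 days.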

[11] = tested on: barnyardgrass (Echinochloa crus-galli); assay: Test B flooded paddy; details: Echinochloa crus-galli, 336 h; 250 g ai/ha, Flood, 13 to 15 days, scale 0 (no effect) to 100 (complete control); read-out: Plant response rating, Barnyardgrass
In short: as §4

rice (Oryza sativa) = assay: Test B flooded paddy; details: Oryza sativa, 336 h; 250 g ai/ha, Flood, 13 to 15 days, scale 0 (no effect) to 100 (complete control); read-out: Plant response rating, Rice
In short: as §4

[12] = tested on: sedge, umbrella (small-flower umbrella sedge, Cyperus difformis); assay: Test B flooded paddy; details: Cyperus difformis, 336 h; 250 g ai/ha, Flood, 13 to 15 days, scale 0 (no effect) to 100 (complete control); read-out: Plant response rating, Sedge, Umbrella
In short: as §4

[13] = 0 to 100 scale, read-out: Plant response rating, Pigweed
[14] = 0 to 100 scale, read-out: Plant response rating, Foxtail, Giant
[15] = 0 to 100 scale (0 no effect, 100 complete control), read-out: Pigweed plant response rating
[16] = 0 to 100 scale (0 no effect, 100 complete control), read-out: Foxtail, Giant plant response rating

| SMILES | pest or weed control at 500 g/ha [1, 13] [%] | pest or weed control at 125 g/ha [2] [%] | pest or weed control at 500 g/ha [2] [%] | pest or weed control at 500 g/ha [3, 14] [%] | pest or weed control at 31 g/ha [4] [%] | pest or weed control at 62 g/ha [4] [%] | pest or weed control at 125 g/ha [4] [%] | pest or weed control at 31 g/ha ([5]; preemergence, scale 0 to 100) [%] | pest or weed control at 62 g/ha ([5]; preemergence, scale 0 to 100) [%] | pest or weed control at 125 g/ha ([5]; preemergence, scale 0 to 100) [%] | pest or weed control at 125 g/ha [6] [%] | pest or weed control at 500 g/ha [6] [%] | pest or weed control at 125 g/ha [7] [%] | pest or weed control at 500 g/ha [7] [%] | pest or weed control at 125 g/ha [8] [%] | pest or weed control at 500 g/ha [8] [%] | plant injury at 125 g/ha [9] [%] | plant injury at 500 g/ha [9] [%] | Corn plant response rating (crop injury, 0 = no effect, 100 = complete kill) at 125 g/ha (corn (Zea mays)) [%] | Corn plant response rating (crop injury, 0 = no effect, 100 = complete kill) at 500 g/ha (corn (Zea mays)) [%] | further results |
| --- | --- | --- | --- | --- | --- | --- | --- | --- | --- | --- | --- | --- | --- | --- | --- | --- | --- | --- | --- | --- | --- |
| N#Cc1cccc(Oc2ncc(Cl)cn2)c1Oc1ncc(Cl)cn1 [Compound 3, 2,3-bis[(5-chloro-2-pyrimidinyl)oxy]benzonitrile] | 100 | 100 | 100 | 100 | 100 | 100 | 100 | 80 | 100 | 100 | 100 | 100 | 90 | 90 | 90 | 90 | 60 | 80 | 50 | 80 | pest or weed control at 125 g/ha [1, 13]: 100%; pest or weed control at 125 g/ha [3, 14]: 100%; pest or weed control at 250 g/ha ([5]; 250 g ai/ha, preemergence, scale 0 to 100): 100%; pest or weed control at 250 g/ha [10]: 90%; pest or weed control at 250 g/ha [11]: 20%; plant injury at 250 g/ha (rice (Oryza sativa)): 35%; pest or weed control at 250 g/ha [12]: 90% |
| Clc1cnc(Oc2cccc(Br)c2Oc2ncc(Cl)cn2)nc1 [Compound 19, 2,2′-[[3-bromo-1,2-phenylene]bis(oxy)]bis[5-chloropyrimidine]] | 100 | 80 | 90 | 100 | 100 | 100 | 100 | 55 | 100 | 100 | 100 | 100 | 70 | 100 | 80 | 90 | 50 | 60 | 50 | 60 | pest or weed control at 125 g/ha [1, 15]: 100%; pest or weed control at 125 g/ha [3, 16]: 100%; pest or weed control at 16 g/ha [4]: 98%; pest or weed control at 16 g/ha [5]: 15%; pest or weed control at 250 g/ha [10]: 95%; pest or weed control at 250 g/ha [11]: 15%; plant injury at 250 g/ha (rice (Oryza sativa)): 25%; pest or weed control at 250 g/ha [12]: 85% |
| Fc1cccc(Oc2ncc(Cl)cn2)c1Oc1ncc(Cl)cn1 [Compound 21, 2,2′-[[3-fluoro-1,2-phenylene]bis(oxy)]bis[5-chloropyrimidine]] | 100 | 90 | 100 | 100 | 100 | 100 | 98 | 85 | 100 | 100 | 100 | 100 | 80 | 90 | 90 | 90 | 50 | 60 | 50 | 60 | pest or weed control at 125 g/ha [1, 15]: 100%; pest or weed control at 125 g/ha [3, 16]: 100%; pest or weed control at 16 g/ha [4]: 100%; pest or weed control at 16 g/ha [5]: 35%; pest or weed control at 250 g/ha [10]: 100%; pest or weed control at 250 g/ha [11]: 35%; plant injury at 250 g/ha (rice (Oryza sativa)): 40%; pest or weed control at 250 g/ha [12]: 90% |
